The results in this text go back to US20100226881A1, “PYRAZOLO[1,5-a]PYRIDINES AND THEIR USE IN CANCER THERAPY” (Auckland Uniservices Limited, priority 2007, published 2010).

Where a name gives a salt, the structure may show the parent alone. Read-outs that look alike come from different tables or passages of the source. Where only a bound is given, the exact number is not on record here.

What is called IC50 is the concentration that gives 50% inhibition.

For one test, the system named is NZB5. Kind of test: Cellular growth inhibition (3H-thymidine), NZB5. The format is cell-based. Conditions: Homo sapiens, five days, 3H-thymidine incorporation, maximum 20 μM. Here is the method:
(§1) The compounds were evaluated against two early passage human cell lines NZB5 and NZOV9, whose development and culture have been described [Marshall et al, Oncol. Res. 2004, 14, 297]. The cells were grown in ITS medium (α-modified minimal essential medium supplemented insulin, transferrin, selenite and 5% fetal bovine serum) and grown on 96-well tissue culture plates under an atmosphere of 5% O2, 5% CO2 and 90% N2. Individual wells contained 500-1000 cells (depending on the growth rate) in a volume of 150 μL. Compounds were added at 10-fold concentration steps to a maximum of 20 μM and plates were incubated for five days, with ^3H-thymidine being added over the last 6 h. Cells were harvested and incorporated radioactivity measured. Duplicate samples were analyzed for each compound dose with multiple control samples. Data were fitted by a least-squares method to an exponential of the form y=y0+ae^−bx, where y is the radioactivity (corrected for background and normalized to 100% of the control) x is the radiation dose, and y0, a and b are variables, and the IC50 value defined as the compound concentration reducing ^3H-thymidine levels by 50%.

The target in the next test is p110β/p85 (Homo sapiens, UniProt P42338). As to the kind of experiment: Inhibition of isolated enzyme, PI 3-kinase p110β/p85. Conditions: recombinant enzyme, 100 μM ATP, average of two experiments. The format is biochemical. Here is the method:
(§2) Compounds were evaluated for their ability to inhibit the Class I PI 3-kinase enzymes p110δ/p85, p110α/p85 and p110β/p85. Reaction mixtures comprising 0.1 μg of recombinant enzyme, 10 μg of L-α-phosphatidylinositol, the compound (DMSO only or DMSO+compound to a final concentration of 1%), 2× Lipid Kinase Buffer (40 mM Tris-HCl pH 7.4, 200 mM NaCl, 1 mM EDTA) were activated by the addition of an ATP mix (5 mM MgCl2, 100 μM ATP, 0.1 μL [γ^33P]ATP). […] Firstly, 200 μL of chloroform/methanol (1:1) was added, the biphasic reactions mixed and centrifuged briefly, and the inorganic phase was removed and discarded.

The target in another test is p110α/p85 (Homo sapiens, UniProt P42336). As to the kind of experiment: Inhibition of isolated enzyme, PI 3-kinase p110α/p85.
Another test deals with NZOV9. As to the kind of experiment: Cellular growth inhibition (3H-thymidine), NZOV9. The format is cell-based. Particulars: Homo sapiens, five days, 3H-thymidine incorporation, maximum 20 μM. The protocol:
as §1

Another test concerns the target p110δ/p85 (Homo sapiens, UniProt O00329). Kind of test: Inhibition of isolated enzyme, PI 3-kinase p110δ/p85. Particulars: recombinant enzyme, 100 μM ATP, average of two experiments. The format is biochemical. The protocol:
as §2

The mark [1] stands for this setting: read-out: IC50 (nM) p110α, recombinant enzyme, 100 μM ATP, average of two experiments.

Sequence of p110δ/p85 (O00329 whole entry, species assumed): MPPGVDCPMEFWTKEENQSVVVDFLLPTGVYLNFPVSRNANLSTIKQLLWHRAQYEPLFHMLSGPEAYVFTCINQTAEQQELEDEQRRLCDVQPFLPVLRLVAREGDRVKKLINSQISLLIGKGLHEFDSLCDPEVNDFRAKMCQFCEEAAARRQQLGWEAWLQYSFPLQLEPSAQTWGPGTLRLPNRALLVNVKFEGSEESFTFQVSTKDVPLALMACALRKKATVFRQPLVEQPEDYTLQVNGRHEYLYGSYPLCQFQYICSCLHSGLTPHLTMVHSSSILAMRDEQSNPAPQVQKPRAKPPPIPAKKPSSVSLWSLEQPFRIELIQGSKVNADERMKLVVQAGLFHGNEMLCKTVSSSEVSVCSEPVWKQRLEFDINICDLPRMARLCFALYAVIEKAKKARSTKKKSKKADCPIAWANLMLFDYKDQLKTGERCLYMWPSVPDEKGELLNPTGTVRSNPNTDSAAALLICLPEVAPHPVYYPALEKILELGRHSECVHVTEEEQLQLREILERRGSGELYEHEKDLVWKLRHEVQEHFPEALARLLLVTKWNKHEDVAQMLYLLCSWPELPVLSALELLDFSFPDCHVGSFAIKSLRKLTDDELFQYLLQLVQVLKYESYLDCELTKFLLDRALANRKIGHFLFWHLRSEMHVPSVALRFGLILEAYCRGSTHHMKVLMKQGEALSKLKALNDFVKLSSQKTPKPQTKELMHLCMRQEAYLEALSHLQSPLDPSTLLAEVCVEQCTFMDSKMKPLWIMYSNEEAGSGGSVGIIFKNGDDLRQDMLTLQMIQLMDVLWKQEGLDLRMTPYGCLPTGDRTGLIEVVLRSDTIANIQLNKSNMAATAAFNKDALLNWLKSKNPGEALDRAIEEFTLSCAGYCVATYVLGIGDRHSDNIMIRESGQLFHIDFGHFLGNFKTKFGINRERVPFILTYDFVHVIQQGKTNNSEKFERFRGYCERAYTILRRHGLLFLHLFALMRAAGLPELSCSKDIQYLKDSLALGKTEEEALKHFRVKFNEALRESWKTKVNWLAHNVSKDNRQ
Sequence of p110δ/p85 (P27986 whole entry partner, species assumed): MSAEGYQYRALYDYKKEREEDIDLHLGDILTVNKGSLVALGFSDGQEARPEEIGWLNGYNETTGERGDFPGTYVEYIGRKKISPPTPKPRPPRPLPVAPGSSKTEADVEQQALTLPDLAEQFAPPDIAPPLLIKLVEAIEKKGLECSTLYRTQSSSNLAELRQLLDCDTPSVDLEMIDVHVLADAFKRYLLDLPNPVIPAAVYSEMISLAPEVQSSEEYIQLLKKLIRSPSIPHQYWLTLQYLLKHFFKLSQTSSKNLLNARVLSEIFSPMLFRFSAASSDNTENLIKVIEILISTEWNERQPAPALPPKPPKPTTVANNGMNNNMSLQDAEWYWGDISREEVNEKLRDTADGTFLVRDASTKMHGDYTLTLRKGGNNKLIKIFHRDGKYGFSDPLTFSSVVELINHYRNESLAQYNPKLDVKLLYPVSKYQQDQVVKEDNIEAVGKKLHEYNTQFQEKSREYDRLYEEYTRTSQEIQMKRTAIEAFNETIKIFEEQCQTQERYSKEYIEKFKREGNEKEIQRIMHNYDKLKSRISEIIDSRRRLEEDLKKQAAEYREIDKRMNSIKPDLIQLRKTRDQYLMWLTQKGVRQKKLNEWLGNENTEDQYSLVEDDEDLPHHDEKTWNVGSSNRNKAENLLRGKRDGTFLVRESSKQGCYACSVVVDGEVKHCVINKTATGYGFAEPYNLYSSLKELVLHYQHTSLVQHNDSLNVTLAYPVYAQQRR
Sequence of p110β/p85 (P42338 whole entry, species assumed): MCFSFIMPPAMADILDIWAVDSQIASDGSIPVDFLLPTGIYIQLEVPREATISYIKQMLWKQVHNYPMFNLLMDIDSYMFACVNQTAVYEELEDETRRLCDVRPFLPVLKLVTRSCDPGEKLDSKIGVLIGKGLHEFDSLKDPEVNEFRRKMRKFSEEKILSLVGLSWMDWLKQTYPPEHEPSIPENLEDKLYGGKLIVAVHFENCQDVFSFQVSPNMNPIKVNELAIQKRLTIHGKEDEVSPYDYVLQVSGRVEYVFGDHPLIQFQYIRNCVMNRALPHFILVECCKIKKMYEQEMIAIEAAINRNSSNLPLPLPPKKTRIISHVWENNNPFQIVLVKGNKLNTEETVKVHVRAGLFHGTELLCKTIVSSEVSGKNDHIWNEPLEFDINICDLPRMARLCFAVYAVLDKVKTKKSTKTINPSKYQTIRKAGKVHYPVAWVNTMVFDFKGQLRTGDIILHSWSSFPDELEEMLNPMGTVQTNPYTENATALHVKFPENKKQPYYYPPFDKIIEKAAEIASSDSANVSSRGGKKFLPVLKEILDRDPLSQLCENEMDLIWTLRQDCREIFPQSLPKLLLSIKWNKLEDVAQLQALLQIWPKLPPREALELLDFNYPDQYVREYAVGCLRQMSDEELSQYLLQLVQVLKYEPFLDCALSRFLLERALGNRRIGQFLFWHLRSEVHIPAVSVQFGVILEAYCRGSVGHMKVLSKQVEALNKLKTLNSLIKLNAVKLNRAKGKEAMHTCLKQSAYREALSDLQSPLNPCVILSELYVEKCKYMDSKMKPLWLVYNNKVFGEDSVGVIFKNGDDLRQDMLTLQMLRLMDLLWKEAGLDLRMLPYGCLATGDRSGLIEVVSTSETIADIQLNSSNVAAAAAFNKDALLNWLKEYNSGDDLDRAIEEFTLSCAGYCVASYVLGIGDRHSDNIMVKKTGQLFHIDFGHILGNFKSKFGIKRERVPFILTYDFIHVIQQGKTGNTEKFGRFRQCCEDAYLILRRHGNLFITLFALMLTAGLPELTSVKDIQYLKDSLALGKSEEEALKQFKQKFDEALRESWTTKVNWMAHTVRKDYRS
Sequence of p110β/p85 (P27986 whole entry partner, species assumed): as the sequence (P27986 whole entry partner, species assumed) above
Sequence of p110α/p85 (P42336 whole entry, species assumed): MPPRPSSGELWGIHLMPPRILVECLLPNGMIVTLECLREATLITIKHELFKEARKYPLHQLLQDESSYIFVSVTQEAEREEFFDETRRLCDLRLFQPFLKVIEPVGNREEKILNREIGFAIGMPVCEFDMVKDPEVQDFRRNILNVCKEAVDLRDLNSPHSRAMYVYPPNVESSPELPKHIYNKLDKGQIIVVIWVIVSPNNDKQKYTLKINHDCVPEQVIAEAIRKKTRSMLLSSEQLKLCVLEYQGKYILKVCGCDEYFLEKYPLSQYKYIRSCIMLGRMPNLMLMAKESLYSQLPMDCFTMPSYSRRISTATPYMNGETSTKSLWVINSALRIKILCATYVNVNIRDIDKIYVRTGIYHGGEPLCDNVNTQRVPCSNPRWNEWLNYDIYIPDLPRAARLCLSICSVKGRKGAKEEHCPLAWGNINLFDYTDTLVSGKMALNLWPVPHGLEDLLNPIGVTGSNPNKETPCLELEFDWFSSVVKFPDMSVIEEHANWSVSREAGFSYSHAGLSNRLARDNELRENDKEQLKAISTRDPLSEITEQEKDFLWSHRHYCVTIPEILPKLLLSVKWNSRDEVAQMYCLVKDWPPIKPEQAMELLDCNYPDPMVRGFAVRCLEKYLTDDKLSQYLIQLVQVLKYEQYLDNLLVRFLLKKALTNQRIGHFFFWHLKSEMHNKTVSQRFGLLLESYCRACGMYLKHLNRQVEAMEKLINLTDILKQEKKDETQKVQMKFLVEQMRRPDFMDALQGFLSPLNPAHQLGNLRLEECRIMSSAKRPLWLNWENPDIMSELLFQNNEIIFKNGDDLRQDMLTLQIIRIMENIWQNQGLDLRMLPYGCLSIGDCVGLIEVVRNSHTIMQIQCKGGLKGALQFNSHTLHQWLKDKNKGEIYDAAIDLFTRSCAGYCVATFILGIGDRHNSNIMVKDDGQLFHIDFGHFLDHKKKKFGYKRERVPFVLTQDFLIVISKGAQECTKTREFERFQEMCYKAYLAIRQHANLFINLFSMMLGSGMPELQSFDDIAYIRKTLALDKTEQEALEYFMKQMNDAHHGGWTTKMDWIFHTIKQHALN
Sequence of p110α/p85 (P27986 whole entry partner, species assumed): as the sequence (P27986 whole entry partner, species assumed) above

In the case of `CN(N=Cc1cnn2ccc(C#N)cc12)S(=O)(=O)c1cc([N+](=O)[O-])ccc1NCc1cccnc1` [E65, N′-((5-Cyanopyrazolo[1,5-a]pyridin-3-yl)methylene)-N-methyl-5-nitro-2-(pyridin-3-ylmethylamino)benzenesulfonohydrazide hydrochloride], the IC50 in the test with NZB5 came to 1.1 µM; at p110β/p85 it was 580 nM; at p110α/p85 (setting [1]), 9.6 nM; in the test with NZOV9, 0.68 µM; on p110δ/p85, 440 nM.
For the compound `CN(N=Cc1cnn2ccc(C#N)cc12)S(=O)(=O)c1cc([N+](=O)[O-])ccc1OCc1ccccn1` [E71, N′-((5-Cyanopyrazolo[1,5-a]pyridin-3-yl)methylene)-N-methyl-5-nitro-2-(pyridin-2-ylmethoxy)benzenesulfonohydrazide hydrochloride], the IC50 came to 1.3 µM in the test with NZB5; 5600 nM on p110β/p85; 5.8 nM on p110α/p85; 0.66 µM in the test with NZOV9; 200 nM on p110δ/p85.
Regarding `CN(C)c1ccc([N+](=O)[O-])cc1S(=O)(=O)N(C)N=Cc1cnn2ccc(Br)cc12` [E73, N′-((5-Bromopyrazolo[1,5-a]pyridin-3-yl)methylene)-2-(dimethylamino)-N-methyl-5-nitrobenzenesulfonohydrazide], the IC50 with NZB5 was 0.11 µM; on p110β/p85, 35 nM; on p110α/p85 (setting [1]), 3.4 nM; in the test with NZOV9, 0.31 µM; on p110δ/p85, 210 nM.
The like results for `CN(N=Cc1cnn2ccc(Br)cc12)S(=O)(=O)c1cc([N+](=O)[O-])ccc1OCCN1CCOCC1` [E74, N′-((5-Bromopyrazolo[1,5-a]pyridin-3-yl)methylene)-N-methyl-2-(2-morpholinoethoxy)-5-nitrobenzenesulfonohydrazide hydrochloride] were, in that order, 0.27 µM, 2900 nM, 32 nM, 0.55 µM and 350 nM.
`CN(C)CCN(C)c1ccc(C#N)cc1S(=O)(=O)N(C)N=Cc1cnn2ccc(C#N)cc12` [E77, 5-Cyano-N′-((5-cyanopyrazolo[1,5-a]pyridin-3-yl)methylene)-2-((2-(dimethylamino)ethyl)(methyl)amino)-N-methylbenzenesulfonohydrazide hydro-chloride]: the IC50 in the test on NZB5 worked out at 0.06 µM; at p110β/p85, 360 nM; at p110α/p85 (setting [1]), 10 nM; in the test with NZOV9 it was 0.05 µM; at p110δ/p85, 380 nM.
For the compound `CN(N=Cc1cnn2ccc(C#N)cc12)S(=O)(=O)c1cc([N+](=O)[O-])cnc1Cl` [E80, 2-Chloro-N′-((5-cyanopyrazolo[1,5-a]pyridin-3-yl)methylene)-N-methyl-5-nitropyridine-3-sulfonohydrazide], the IC50 in the test on NZB5 was 7.9 µM; at p110β/p85 it was 5800 nM; at p110α/p85 (setting [1]) it was 23 nM; with NZOV9 it was 3.4 µM; at p110δ/p85 it was 230 nM.
As to `CN(N=Cc1cnn2ccc(C#N)cc12)C(=O)c1cccc([N+](=O)[O-])c1` [E82, N′-((5-Cyanopyrazolo[1,5-a]pyridin-3-yl)methylene)-N-methyl-3-nitro-benzohydrazide], the IC50 in the test with NZB5 was determined as 1.8 µM; at p110β/p85, 72 nM; at p110α/p85 (setting [1]), 21 nM; with NZOV9 it was 6 µM; at p110δ/p85, 19 nM.
Taken in the same sequence, the figures for `Cc1ccc([N+](=O)[O-])cc1CN(C)N=Cc1cnn2ccc(C#N)cc12` [E84, 3-((2-Methyl-2-(2-methyl-5-nitrobenzyl)hydrazono)methyl)pyrazolo[1,5-a]pyridine-5-carbonitrile] were 1.7 µM, 48 nM, 41 nM, 1.9 µM and 39 nM.
Consider `Cc1ccc([N+](=O)[O-])cc1S(=O)(=O)n1ccc(-c2cnn3ccc(Br)cc23)n1` [E88, 5-bromo-3-(1-(2-methyl-5-nitrophenylsulfonyl)-1H-pyrazol-3-yl)pyrazolo[1,5-a]pyridine], for which the IC50 with NZB5 is 0.08 µM; at p110β/p85, > 1000 nM; on p110α/p85 (setting [1]), 250 nM; with NZOV9, 0.07 µM; at p110δ/p85, 1450 nM.
Taken in the same sequence, the figures for `O=[N+]([O-])c1cccc(S(=O)(=O)c2nc(-c3cnn4ccc(Br)cc34)cs2)c1` [E90, 4-(5-Bromopyrazolo[1,5-a]pyridin-3-yl)-2-(3-nitrophenylsulfonyl)thiazole] were 0.18 µM, 5500 nM, 790 nM, 0.61 µM and 250 nM.
On to `Cc1ccc([N+](=O)[O-])cc1Sc1nnc(-c2cnn3ccc(Br)cc23)o1` [E91, 2-(5-Bromopyrazolo[1,5-a]pyridin-3-yl)-5-(2-methyl-5-nitrophenylthio)-1,3,4-oxadiazole], for which the IC50 is 0.73 µM with NZB5; > 1000 nM on p110β/p85; 84 nM against p110α/p85; 2.8 µM in the test on NZOV9; 120 nM at p110δ/p85.
